Results on 13 compounds are retold here after patent US10730902B2, “1,1 ′-sulfanediyl-di-beta-D-galactopyranosides as inhibitors of galectins” (GALECTO BIOTECH AB, priority 2015, dated 2020).

Values after ≈ are worked out from the molar mass of the structure shown. Where only a bound is given, the exact number is not on record here.

Series [1] relates to galectins. Particulars: all galectins; cited from earlier work.
Series [2] has as its target galectin-1 (Homo sapiens (Human), UniProt P09382). The series can be described thus: Fluorescence anisotropy assay, galectin-1 affinity. To be noted: read-out: Gal-1 Kd. It is filed as binding. The protocol:
The affinity of Example 1-5 for galectins were determined by a fluorescence anisotropy assay where the compound was used as an inhibitor of the interaction between galectin and a fluorescein tagged saccharide probe as described Sörme, P., Kahl-Knutsson, B., Huflejt, M., Nilsson, U. J., and Leffler H. (2004) Fluorescence polarization as an analytical tool to evaluate galectin-ligand interactions. Anal. Biochem. 334: 36-47, (Sörme et al., 2004) and Monovalent interactions of Galectin-1 By Salomonsson, Emma; Larumbe, Amaia; Tejler, Johan; Tullberg, Erik; Rydberg, Hanna; Sundin, Anders; Khabut, Areej; Frejd, Torbjorn; Lobsanov, Yuri D.; Rini, James M.; et al, From Biochemistry (2010), 49(44), 9518-9532, (Salomonsson et al., 2010). […] 100 nM albumin was included as a carrier to prevent protein loss at such low concentration of galectin.
On the technique in general: In fluorescence polarisation assays a small probe gives low polarisation when free and higher when bound to something large.

Series [3] can be described thus: Solubility. It is filed as physicochemical.
Series [4] deals with galectin-3 (Homo sapiens (Human), UniProt P17931). The series can be described thus: Fluorescence anisotropy assay, galectin-3 affinity. It is filed as binding. To be noted: read-out: Gal-3 Kd. The protocol:
Anal. Biochem. 334: 36-47, (Sörme et al., 2004) and Monovalent interactions of Galectin-1 By Salomonsson, Emma; Larumbe, Amaia; Tejler, Johan; Tullberg, Erik; Rydberg, Hanna; Sundin, Anders; Khabut, Areej; Frejd, Torbjorn; Lobsanov, Yuri D.; Rini, James M.; et al, From Biochemistry (2010), 49(44), 9518-9532, (Salomonsson et al., 2010). […] 100 nM albumin was included as a carrier to prevent protein loss at such low concentration of galectin.

Series [5] relates to rabbit model of proliferative Vitreoretinopathy (PVR). The series can be described thus: Study of ocular fibrosis in rabbits (retinal detachment, PVR model). It is filed as in vivo, New Zealand white rabbits. Particulars: for reduction of size and number of subretinal glial scars and number of dividing cells: in HEC formulation, rabbit retinal detachment; for number of subretinal scars per mm of retina / scar length per mm of retina: seven days after retinal detachment; for number of subretinal scars per mm of retina / scar length per mm of retina / Ki67 labeled Muller cells per mm of retina: 50 μL IVT in HEC gel, GB1A 0.05 mg/mL, GB1B 1.5 mg/mL; for number of subretinal scars per mm of retina: HEC control 1.26; for scar length per mm of retina: HEC control 175; for Ki67 labeled Muller cells per mm of retina: three days after retinal detachment, HEC control 9.57. Here is the method: 30 New Zealand white rabbits were housed in metal cages that conformed to standards set forth in the Animal Welfare Act and the Guide for the Care and Use of Laboratory Animals. Space recommendations for animals were in accordance with PHS policy and the AWA.
The vehicle gel formulation was 1.65% (w/v) HEC in NaCl. The vehicle formulation was prepared by adding the appropriate amount of HEC to 75% of the required volume of 0.9% NaCl. The resulting formulation was stirred for 20 to 25 minutes after which it was QS'ed (adjusted) to the final volume with 0.9% NaCl and stirred for an additional 2 to 3 hours at room temperature. The gel formulation was then filtered with a 0.2 μm cellulose filter.
The test item formulations were prepared by adding the appropriate amount of GB1A or GB1B to 75% of the required volume of 0.9% NaCl. The resulting formulation was agitated for 20 to 25 minutes after which the pH of the solution was measured and adjusted, as necessary, to 6-6.5 with 0.01M NaOH. The required amount of HEC was added to the test item solution and the formulation was agitated for 20 to 25 minutes. The formulation was then QS'ed to the final volume with NaCl and agitated for an additional 2 to 3 hours at room temperature. The final gel formulation was filtered with a 0.2 μm cellulose filter.
Retinal detachments were created by infusing a dilute solution (0.25%) of Healon into the subretinal space of the right eyes in 30 New Zealand White rabbits. Fifty (50) μL of GB1A (0.05 mg/mL), GB1B (1.5 mg/mL), or vehicle (HEC) formulations were injected intravitreally immediately after the detachment surgery in the right eyes of all animals (n=5 for each vehicle/test item at each time-point). The left eyes served as naïve controls. Euthanasia was performed by administering “Euthasol” IV via an ear vein, on animals of Groups 1 to 3, 3 days after retinal detachment (n=15) to examine the effects on proliferation, and on animals of Groups 4 to 6, 7 days after retinal detachment (n=15) to examine the effects on scaring.
Following euthanasia, the retinas were fixed in 4% paraformaldehyde for 24 hours. Three retinal regions approximately 3 mm square were sampled from within each detached retina as well as from control retinas. The retinas were embedded in agarose and vibratomed at 100 microns in thickness. Sections were immunolabeled with antibodies to intermediate filament proteins (vimentin) and proliferating cells (Ki67). A marker for immune cells (Isolectin B4) and a nuclear stain (DAPI) was also used. All 4 probes were added to the same sections (i.e. quadruple labeling).
The sections were imaged using an Olympus FV1000 confocal microscope. Digital images were acquired and used to determine 1) the number and size of subretinal glial scars 2) the number of dividing cells and their cell type e.g. of immune or glial origin 3) whether microglia are “activated” and 4) if macrophages are present. Animals were weighed pre-dose and at euthanasia. All animals gained a small amount of weight as was expected.
Following euthanasia, the eyes were enucleated, the cornea and lens removed and the eyecups fixed in 4% paraformaldehyde in PBS for 24 hours. Three retinal regions approximately 3 mm^2 were dissected from within each detached retina and embedded in agarose for sectioning as described above. Following immunolabeling, the sections were mounted on glass slides and cover-slipped. Digital images were captured from along the length of each section collected from each of the 3 retinal regions using a FV1000 confocal microscope. Quantitation of scar length and number, as well as the number of dividing cells, was performed using the digital images viewed in “BioImage” (software available as a free download from UCSB's dept. of engineering). In addition, the presence of immune cells as described in the Experimental Design was noted and tabulated for each animal.

galectin-1, sequence (P09382 whole entry): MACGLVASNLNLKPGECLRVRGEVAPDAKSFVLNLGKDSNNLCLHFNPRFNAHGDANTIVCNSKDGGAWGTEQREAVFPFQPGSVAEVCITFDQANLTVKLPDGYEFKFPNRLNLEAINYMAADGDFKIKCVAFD
galectin-3, sequence (P17931 whole entry): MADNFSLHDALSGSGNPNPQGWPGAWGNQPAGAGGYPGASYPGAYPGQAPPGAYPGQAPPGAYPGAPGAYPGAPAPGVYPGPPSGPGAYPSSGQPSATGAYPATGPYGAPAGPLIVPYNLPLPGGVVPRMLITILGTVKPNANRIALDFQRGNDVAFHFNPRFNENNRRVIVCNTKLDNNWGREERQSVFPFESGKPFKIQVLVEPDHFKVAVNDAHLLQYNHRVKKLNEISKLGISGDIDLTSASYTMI

In the case of `O=C[C@H](O)[C@@H](O)[C@@H](O)[C@H](O)CO` [D-galactose], in series [1], the “affinity relative to lactose” value was 50-100 times lower.
The Kd is the constant that tells how readily two partners part at equilibrium. For the compound `OCC1O[C@@H](SC2O[C@H](CO)C(O)C(n3cc(N4CCOCC4)nn3)[C@H]2O)C(O)C(n2cc(-c3cc(F)c(F)c(F)c3)nn2)[C@H]1O` (stereo partly drawn) [Example 1, 3,3′-Dideoxy-3-[4-(morpholin-4-yl)-1H-1,2,3-triazol-1-yl]-3′-[4-(3,4,5-trifluorophenyl)-1H-1,2,3-triazol-1-yl]-1,1′-sulfanediyl-di-β-D-galactopyranoside], the Kd in series [2] was determined as 0.11 µM.
The term solubility denotes the concentration that dissolves in the medium under given conditions. Read a low solubility as little dissolved substance. Compound `OCC1O[C@@H](SC2O[C@H](CO)C(O)C(n3cc(N4CCOCC4)nn3)[C@H]2O)C(O)[C@@H](n2cc(-c3cc(F)c(F)c(F)c3)nn2)[C@H]1O` (stereo partly drawn) [Example 1, 3,3′-Dideoxy-3-[4-(morpholin-4-yl)-1H-1,2,3-triazol-1-yl]-3′-[4-(3,4,5-trifluorophenyl)-1H-1,2,3-triazol-1-yl]-1,1′-sulfanediyl-di-β-D-galactopyranoside] registered a solubility in series [3] above 10000 µg/mL.
For the compound `CN1CCN(c2cn(C3C(O)[C@@H](CO)OC(S[C@@H]4OC(CO)[C@H](O)C(n5cc(-c6cc(F)c(F)c(F)c6)nn5)C4O)[C@@H]3O)nn2)CC1` (stereo partly drawn) [Example 2, 3,3′-Dideoxy-3-[4-(4-methylpiperazin-1-yl)-1H-1,2,3-triazol-1-yl]-3′-[4-(3,4,5-trifluorophenyl)-1H-1,2,3-triazol-1-yl]-1,1′-sulfanediyl-di-β-D-galactopyranoside], the Kd in series [2] is 0.035 µM.
`CN1CCN(c2cn(C3C(O)[C@@H](CO)OC(S[C@@H]4OC(CO)[C@H](O)[C@H](n5cc(-c6cc(F)c(F)c(F)c6)nn5)C4O)[C@@H]3O)nn2)CC1` (stereo partly drawn) [Example 2, 3,3′-Dideoxy-3-[4-(4-methylpiperazin-1-yl)-1H-1,2,3-triazol-1-yl]-3′-[4-(3,4,5-trifluorophenyl)-1H-1,2,3-triazol-1-yl]-1,1′-sulfanediyl-di-β-D-galactopyranoside] registered a solubility in series [3] above 10000 µg/mL.
With `OCC1O[C@@H](SC2O[C@H](CO)C(O)C(n3cc(C4CCNCC4)nn3)[C@H]2O)C(O)[C@@H](n2cc(-c3cc(F)c(F)c(F)c3)nn2)[C@H]1O` (stereo partly drawn) [Example 3, 3,3′-Dideoxy-3-[4-(piperidin-4-yl)-1H-1,2,3-triazol-1-yl]-3′-[4-(3,4,5-trifluorophenyl)-1H-1,2,3-triazol-1-yl]-1,1′-sulfanediyl-di-β-D-galactopyranoside], the solubility in series [3] is above 10000 µg/mL. Also, the Kd in series [4] worked out at 0.005 µM; in series [2] it was 0.029 µM.
Consider `OCC1O[C@@H](SC2O[C@H](CO)C(O)C(n3cc(C4CCOCC4)nn3)[C@H]2O)C(O)C(n2cc(-c3cc(F)c(F)c(F)c3)nn2)[C@H]1O` (stereo partly drawn) [Example 4, 3,3′-Dideoxy-3-[4-(tetrahydropyran-4-yl)-1H-1,2,3-triazol-1-yl]-3′-[4-(3,4,5-trifluorophenyl)-1H-1,2,3-triazol-1-yl]-1,1′-sulfanediyl-di-β-D-galactopyranoside], for which the equilibrium dissociation constant (Kd) in series [2] was determined as 0.058 µM.
In series [3], `OCC1O[C@@H](SC2O[C@H](CO)C(O)C(n3cc(C4CCOCC4)nn3)[C@H]2O)C(O)[C@@H](n2cc(-c3cc(F)c(F)c(F)c3)nn2)[C@H]1O` (stereo partly drawn) [Example 4, 3,3′-Dideoxy-3-[4-(tetrahydropyran-4-yl)-1H-1,2,3-triazol-1-yl]-3′-[4-(3,4,5-trifluorophenyl)-1H-1,2,3-triazol-1-yl]-1,1′-sulfanediyl-di-β-D-galactopyranoside] gave a solubility of 8100 µg/mL (≈ 12 mM).
As for `CC(C)c1cn(C2C(O)[C@@H](CO)OC(S[C@@H]3OC(CO)[C@H](O)C(n4cc(-c5cc(F)c(F)c(F)c5)nn4)C3O)[C@@H]2O)nn1` (stereo partly drawn) [Example 5, 3,3′-Dideoxy-3-[4-(propan-2-yl)-1H-1,2,3-triazol-1-yl]-3′-[4-(3,4,5-trifluorophenyl)-1H-1,2,3-triazol-1-yl]-1,1′-sulfanediyl-di-β-D-galactopyranoside], in series [2], the Kd amounted to 0.07 µM.
`CC(C)c1cn(C2C(O)[C@@H](CO)OC(S[C@@H]3OC(CO)[C@H](O)[C@H](n4cc(-c5cc(F)c(F)c(F)c5)nn4)C3O)[C@@H]2O)nn1` (stereo partly drawn) [Example 5, 3,3′-Dideoxy-3-[4-(propan-2-yl)-1H-1,2,3-triazol-1-yl]-3′-[4-(3,4,5-trifluorophenyl)-1H-1,2,3-triazol-1-yl]-1,1′-sulfanediyl-di-β-D-galactopyranoside] yielded a solubility in series [3] above 10000 µg/mL.
As for `OC[C@H]1O[C@@H](S[C@@H]2O[C@H](CO)[C@H](O)[C@H](n3cc(-c4cccc(F)c4)nn3)[C@H]2O)[C@H](O)[C@@H](n2cc(-c3cccc(F)c3)nn2)[C@H]1O` [GB1A, 3,3′-Dideoxy-3,3′-bis-[4-(3-fluoro-phenyl)-1H-1,2,3-triazol-1-yl]-1,1′-sulfanediyl-di-β-D-galactopyranoside], in series [5], the “reduction of size and number of subretinal glial scars and number of dividing cells” value was “highly effective”; the “number of subretinal scars per mm of retina” value is 0.45 scars per mm of retina; the “scar length per mm of retina” value was 25.83 microns per mm of retina; the “Ki67 labeled Muller cells per mm of retina” value was 3.01 cells per mm of retina.
As to `OC[C@H]1O[C@@H](S[C@@H]2O[C@H](CO)[C@H](O)[C@H](n3cc(-c4ccc(F)cn4)nn3)[C@H]2O)[C@H](O)[C@@H](n2cc(-c3ccc(F)cn3)nn2)[C@H]1O` [GB1B, 3,3′-Dideoxy-3,3′-bis-[4-(5-fluoro-2-pyridinyl)-1H-1,2,3-triazol-1-yl]-1,1′-sulfanediyl-di-β-D-galactopyranoside], in series [5], the “reduction of size and number of subretinal glial scars and number of dividing cells” value is on record as “highly effective”; the “number of subretinal scars per mm of retina” value is listed as 0.43 scars per mm of retina; the “scar length per mm of retina” value is reported as 28.8 microns per mm of retina; the “Ki67 labeled Muller cells per mm of retina” value is listed as 2.73 cells per mm of retina.
As to `OC[C@H]1O[C@@H](O[C@H]2[C@H](O)[C@@H](O)C(O)O[C@@H]2CO)[C@H](O)[C@@H](O)[C@H]1O` (stereo partly drawn) [lactose], the Kd in series [1] is 500 to 1000 µM.
